Patent publication US11059830B2, “Compounds that participate in cooperative binding and uses thereof” (Revolution Medicines, Inc., priority 2015, dated 2021)

Assays:
FKBP12 [1] = target: T1, FKBP12 (Homo sapiens (Human), UniProt P62942); assay: SPR kinetics of Compound 2 and Compound 6 binding to immobilized FKBP12 (Example 8); conditions: compound to immobilized FKBP12, 25° C.
Protocol: This protocol utilizes Surface Plasmon Resonance (SPR) as a method to determine kinetics (KD, Ka, Kd) for the binding of Compound 2 and Compound 6 (analyte) to immobilized FKBP12 (ligand).
Compound 2 and Compound 6 in 100% DMSO (in-house), 10×HBS-P+ buffer (GE Healthcare BR-1006-71), Assay buffer (1×HBS-P+ buffer, 1% DMSO), 12×HIS tagged FKBP12 (in-house).
(§1) Experiments are performed at 25° C. Stock solution of 12×HIS tagged FKBP12 is diluted to 100 nM in assay buffer (1% DMSO final). Approximately 500-600 RU of FKBP12 is immobilized on one of two flow cells of an activated NTA chip. The second flow cell is not activated as a reference for non-specific interaction of the analyte to the sensor chip. Various concentrations of Compound 2 or Compound 6 (1 nM-1 μM range), serially diluted into the same assay buffer (1% DMSO final), are injected onto the FKBP12 surface and reference surface at a flow rate of 10 μl/min. The surface is regenerated between analyte injections with 350 mM EDTA.
(§2) The BiaEvaluation software program is used for data fitting. All data is reference subtracted against both the reference flow cell and a buffer injection. For kinetic analyses, data is locally fit to a 1:1 interaction model.

[2] = target: T2, CEP25011.4 (residues 2134-2231) (Homo sapiens (Human), UniProt P62942+Q9BV73); assay: SPR binding of CEP250 (analyte) to immobilized FKBP12-Compound 2 binary complex; conditions: FKBP12/Compound 2 complex binding to CEP25011.4, SPR, 1 μM compound
T2 sequence (Q9BV73 2134-2231): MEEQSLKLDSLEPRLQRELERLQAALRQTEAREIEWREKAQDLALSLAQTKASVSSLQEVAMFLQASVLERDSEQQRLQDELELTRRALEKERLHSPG
T2 sequence (P62942 whole entry, the tested form may be a part): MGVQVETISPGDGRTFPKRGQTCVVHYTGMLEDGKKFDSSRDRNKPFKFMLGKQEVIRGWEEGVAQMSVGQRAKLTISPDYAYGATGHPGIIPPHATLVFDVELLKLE
Protocol: (§3) This protocol utilizes Surface Plasmon Resonance (SPR) as a method to determine kinetics (KD, Ka, Kd) for the binding of CEP250 (analyte) to immobilized FKBP12-Compound 2 binary complex (ligand).
(§4) Compound 2 in 100% DMSO (in-house), 10×HBS-P+ buffer (GE Healthcare BR-1006-71), Assay buffer (1×HBS-P+ buffer, 1% DMSO, 1 μM Compound 2), 12×HIS tagged FKBP12 (in-house), CEP25029.2 (residues 1982-2231) and CEP25011.4 (residues 2134-2231) (in-house).
as §1, with “buffer containing 1 μM Compound 2” for “buffer”, “200-400” for “500-600”, “CEP250” for “Compound 2 or Compound 6”
as §2

[3] = target: CEP25029.2 (residues 1982-2231) (Homo sapiens (Human), UniProt P62942+Q9BV73); assay: as above; conditions: FKBP12/Compound 2 complex binding to CEP25029.2, SPR, 1 μM compound
Chain of CEP25029.2 (residues 1982-2231) (Q9BV73 1982-2231): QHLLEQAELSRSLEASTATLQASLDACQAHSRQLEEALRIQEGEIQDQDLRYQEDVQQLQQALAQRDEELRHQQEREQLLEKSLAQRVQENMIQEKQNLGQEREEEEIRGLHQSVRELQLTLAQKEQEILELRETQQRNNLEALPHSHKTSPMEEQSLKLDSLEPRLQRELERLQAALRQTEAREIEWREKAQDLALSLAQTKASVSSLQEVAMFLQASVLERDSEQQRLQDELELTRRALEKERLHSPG
Chain of CEP25029.2 (residues 1982-2231) (P62942 whole entry, the tested form may be a part): as the sequence (P62942 whole entry, the tested form may be a part) above
Protocol: as §3, §4
as §1, with “buffer containing 1 μM Compound 2” for “buffer”, “200-400” for “500-600”, “CEP250” for “Compound 2 or Compound 6”
as §2

FKBP12 [4] = target: T1, FKBP12; assay: AlphaLISA FKBP12 binding: inhibition of binding of biotinylated FK506 to FLAG tagged FKBP12; conditions: read-out: Binding affinity to FKBP12 (by displacement of FK506)
Text: The binding of compounds of the invention to FKBP12 can be determined using the following protocol.
This protocol utilizes Perkin Elmers AlphaLISA technology platform to detect FKBP binders by measuring the inhibition of binding of biotinylated FK506 to FLAG tagged FKBP12.
10×TBST Buffer (Boston BioProducts IBB-181), Biotinylated FK506 (in-house), FLAG tagged FKBP (in-house); anti-FLAG Donor beads (Perkin Elmer AS103) and Streptavidin Acceptor beads (Perkin Elmer AL125); Compounds in DMSO (in-house), FK506.
Experimental Protocol/Description of Assay: Add 20 uL of 12.5 nM FKBP-FLAG working stock to each well of the 96-well plate. Add 1 uL of test compound (100% DMSO) to each well of the plate using the Janus MTD head and P20 tips (except control wells). Add 1 uL of DMSO to negative control wells and 1 uL of 50 uM FK506 solution to positive control wells. In the dark, add 20 uL of combined Donor/Acceptor beads to each well. Incubate in the dark for 30 minutes at room temperature. In the dark, add 10 uL of 5 nM biotinylated FK506 working stock to each well. Incubate in the dark for 60 minutes at room temperature. Protect plate from light until reading on Biotek Synergy2 Plate Reader; Alphalisa 96-well protocol (680 excitation/615 emission).

[5] = target: T2, CEP25011.4 (residues 2134-2231); assay: ITC binding of FKBP12-compound binary complex to CEP250
Protocol: (§5) This protocol utilizes Isothermal Titration Calorimetry (ITC) to directly measure the heat change associated with binding of FKBP12-Compound 2 and FKBP12-Compound 6 binary complexes to CEP250. Measurement of the heat change allows accurate determination of association constants (Ka), reaction stoichiometry (N), and the change in binding enthalpy (ΔH).
(§6) Compound 2 and Compound 6 in 100% DMSO (in-house), Protein Buffer (10 mM HEPES, pH 7.5, 75 mM NaCl, 0.5 mM TCEP), assay buffer (protein buffer+1% DMSO), FKBP12 (in-house), CEP25029.4 (residues 1982-2231) and CEP25011.4 (residues 2134-2231) (in-house).
(§7) MicroCal™ ITC200 (GE Healthcare) Experimental Protocol: FKBP12 stock solution was diluted to 10 μM in assay buffer (1% DMSO final). Compound was added to FKBP12 to 20 μM (1% DMSO final), and binary complex was filled into the reaction cell of the ITC device after 5-10 min pre-incubation time. CEP250 protein stocks were diluted to 50 μM in assay buffer and supplemented with 20 μM compound (1% DMSO final) before being filled into the injection syringe. A control experiment in the absence of compound was also run to determine the heat associated with operational artifacts and the dilution of titrant as it was injected from the syringe into the reaction cell.

[6] = target: CEP25029.4 (residues 1982-2231) (Homo sapiens (Human), UniProt P62942+Q9BV73); assay: as above
Chain of CEP25029.4 (residues 1982-2231) (Q9BV73 1982-2231): as the sequence (Q9BV73 1982-2231) above
Chain of CEP25029.4 (residues 1982-2231) (P62942 whole entry, the tested form may be a part): as the sequence (P62942 whole entry, the tested form may be a part) above
Protocol: as §5, §6, §7

T1 sequence (P62942 whole entry): as the sequence (P62942 whole entry, the tested form may be a part) above

With CC[C@H](Cc1ccccc1)[C@@H]1/C=C/C/C=C/C[C@@H](C)[C@H](O)[C@@H](C)[C@@H]2CC[C@@H](C)C(=O)C(O)(O2)C(=O)N2CCCC[C@H]2C(=O)O1 [Compound 2] the Kd (FKBP12 [1]) was 0.0132 µM, the koff (FKBP12 [1]) was 0.000594 s⁻¹ and the kon (FKBP12 [1]; read-out: Ka) was 45000 M⁻¹ s⁻¹. For the same compound, the “Kd” value [2] was 0.00309 s⁻¹, the kon ([2]; read-out: Ka) was 571000 M⁻¹ s⁻¹ and the koff [3] was 9.25e-05 s⁻¹. It also gave a kon ([3]; read-out: Ka) of 311000 M⁻¹ s⁻¹, an IC50 (FKBP12 [4]) of 0.0015 µM and a Kd [5] of 0.07 µM. For the same compound, the ΔH ([5]; ITC, FKBP12 10 μM in cell, CEP25011.4 68 μM in syringe, ligand 20 μM, 298 K) was -49.37 kJ/mol, the ΔG ([5]; ITC, FKBP12 10 μM, CEP25011.4 68 μM, ligand 20 μM, 298 K, ΔG = −RT ln Ka) was -40.75 kJ/mol and the “−T*ΔS” value ([5]; ITC, FKBP12 10 μM, CEP25011.4 68 μM, ligand 20 μM, 298 K, −TΔS = ΔG − ΔH) was 8.62 kJ/mol. For the same compound, the Kd [6] was 0.19 µM, the ΔH ([6]; ITC, FKBP12 10 μM in cell, CEP25029.4 118 μM in syringe, ligand 20 μM, 298 K) was -52.21 kJ/mol and the ΔG ([6]; ITC, FKBP12 10 μM, CEP25029.4 118 μM, ligand 20 μM, 298 K, ΔG = −RT ln Ka) was -38.41 kJ/mol. The “−T*ΔS” value ([6]; ITC, FKBP12 10 μM, CEP25029.4 118 μM, ligand 20 μM, 298 K, −TΔS = ΔG − ΔH) was 13.80 kJ/mol.
